Experimental data reported in patent publication US20190382454A1, “A MODIFIED PEPTIDE AS AN ANTICANCER AGENT” (Amrita Therapeutics Limited, priority 2015, published 2019).
Entries after “also recorded” stand apart in the source; their conditions may differ. Ends that are not written are not given here.

Columns and labels:
[1] = target: T1, SMAR1 (Homo sapiens, UniProt Q8N9N5); assay: SMAR1 stabilization/induction in HCT116 cells (western blot); assay type: cell-based; conditions: peptide treatment 48 hours
T1 construct: HCT116 cells treated with different available peptides for 48 hours stabilized SMAR1 expression; endogenous in cells; host or cells: HCT116 p53+/+, HCT116 p53-/-, MCF7, SW620, NCI-H522, MDA-MB231
T1 sequence (Q8N9N5 1-519): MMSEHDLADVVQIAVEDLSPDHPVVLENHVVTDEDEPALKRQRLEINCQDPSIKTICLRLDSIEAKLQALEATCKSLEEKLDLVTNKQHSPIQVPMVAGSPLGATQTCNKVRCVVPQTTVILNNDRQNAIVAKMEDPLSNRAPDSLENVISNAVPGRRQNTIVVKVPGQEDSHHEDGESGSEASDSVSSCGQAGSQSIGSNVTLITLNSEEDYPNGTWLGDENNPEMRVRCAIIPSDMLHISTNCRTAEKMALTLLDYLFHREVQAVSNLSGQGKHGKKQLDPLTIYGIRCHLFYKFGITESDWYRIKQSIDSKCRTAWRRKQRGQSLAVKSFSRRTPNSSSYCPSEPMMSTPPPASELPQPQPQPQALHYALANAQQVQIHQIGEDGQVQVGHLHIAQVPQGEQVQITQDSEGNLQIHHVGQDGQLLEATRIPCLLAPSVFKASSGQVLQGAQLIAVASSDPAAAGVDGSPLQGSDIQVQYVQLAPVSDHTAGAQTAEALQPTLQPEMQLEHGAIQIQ

[2] = test system: SMAR1; assay: Peptide interaction assay by ITC, SMAR1; assay type: binding; conditions: 25° C.
[3] = test system: HCT116 cells (carcinoma); assay: HCT116 xenograft in SCID mice; assay type: in vivo; conditions: 25 mg/kg daily, 21 days of treatment
Description: (§1) SCID mice were injected subcutaneously with either 1 million HCT116 cells (carcinoma) or HT29 cells (adenocarcinoma) both of which are colon cancer cells. After 2 weeks tumors developed could be seen and the process of injecting AT-01C peptide was initiated. For HCT116 xenograft mice model AT-01C peptide of 25 mg/kg body weight of mice was injected intra-peritoneally. In case of HT29 xenograft mice model AT-01C peptide of 50 mg/kg body weight of mice was injected intra-peritoneally. Stock concentration of the AT-01C was 10 mg/ml. Both the mice group were injected with AT-01C peptide for 21 days daily just 5 mm away from the tumors. The daily injection was performed by injecting AT-01C surrounding the tumors being developed. After 21 days of injection tumors excised and their weight and volume was measured.
(§2) Tumors raised in SCID mice by subcutaneously injecting either 1 million HCT116 cells or HT29 cells (Xenograft model). After tumors developed and were visible to eyes AT-01C peptide treatment was started. For tumors raised using HCT116 colon cancer cells AT-01C of 25 mg/kg body weight of mice was injected intra-peritoneally. AT-01C peptide of 50 mg/kg body weight was injected intra-peritoneally as treatment for tumors raised with HT29 cells. AT-01C was injected daily surrounding the tumor 5 mm away from it. After 21 days of peptide injection, mice were sacrificed and tumors excised. […]

[4] = test system: HT29 cells (adenocarcinoma); assay: HT29 xenograft in SCID mice; assay type: in vivo; conditions: 50 mg/kg daily, 21 days of treatment
Description: as §1, §2

[5] = target: T1, SMAR1; assay: SMAR1 stabilization across a variety of cancer cell lines (MCF7, SW620, NCI-H522, HCT116p53-/-, MDA-MB231); assay type: cell-based; conditions: different concentrations
[6] = target: T1, SMAR1; assay: SMAR1 induction in HCT116p53-/- cells; assay type: cell-based
[7] = test system: MDA-MB231 breast cancer cells; assay: Wound healing / cell migration assay; assay type: cell-based, Human; conditions: MDA-MB231, 10 μg peptide, recorded up to 16 hours, vs DMSO control
Description: MDA-MB231 breast cancer cells (1×10^^6) were seeded in a 6 well plate and maintained in L15 DMEM medium supplemented with 10% FBS and 100 Units of Penicillin Streptomycin antibiotics for 24 hours. Cells were treated for 24 hours with AT-01C and AT-01D peptides of 10 μg each. Post 24 hours wound was created and washed with medium to remove the cells detached during wound creation. Fresh peptides were added plate was mounted at the microscope chamber maintaining the temperature of 37° C. Images were acquired in NIKON Confocal Microscope for 5 minutes interval. Time lapse was set for 16 hours and images were compiled to make the video movie of the cell migration.

[8] = test system: MDA-MB231 cells; assay: Annexin V staining by flow cytometry (FACS); assay type: cell-based, Human; conditions: after peptide treatment
[9] = test system: HCT116 cells; assay: Colony formation assay; assay type: cell-based
Description: 200 HCT116 cells seeded in 35 mm petri dishes and cultured for 24 hours. 10 μg of AT-01D added fresh every two days up to day 12th. Cell were washed with 1× Phosphate Buffer Saline and then fixed using 3% Para-formaldehyde for 10 minutes. Cells were washed and stained with Crystal violet for 30 minutes. After washing with PBS plates were kept inverted and air dried. Colonies were counted using inverted bright field microscope (Nikon). A group of cells were identified to be a colony that consists of more than 50 cells.

[10] = test system: SMAR1; assay: PCR of SMAR1 mRNA in HCT116p53+/+ cells; conditions: 48 hours
[11] = target: T2, Scaffold Matrix Attachment Region Binding Protein 1 (SMAR1), full length (UniProt Q8N9N5 1-519); assay: ITC, 25 C
T2 construct: This molecule also stands for endogenous SMAR1 of HCT116 cells in the functional rows
T2 sequence: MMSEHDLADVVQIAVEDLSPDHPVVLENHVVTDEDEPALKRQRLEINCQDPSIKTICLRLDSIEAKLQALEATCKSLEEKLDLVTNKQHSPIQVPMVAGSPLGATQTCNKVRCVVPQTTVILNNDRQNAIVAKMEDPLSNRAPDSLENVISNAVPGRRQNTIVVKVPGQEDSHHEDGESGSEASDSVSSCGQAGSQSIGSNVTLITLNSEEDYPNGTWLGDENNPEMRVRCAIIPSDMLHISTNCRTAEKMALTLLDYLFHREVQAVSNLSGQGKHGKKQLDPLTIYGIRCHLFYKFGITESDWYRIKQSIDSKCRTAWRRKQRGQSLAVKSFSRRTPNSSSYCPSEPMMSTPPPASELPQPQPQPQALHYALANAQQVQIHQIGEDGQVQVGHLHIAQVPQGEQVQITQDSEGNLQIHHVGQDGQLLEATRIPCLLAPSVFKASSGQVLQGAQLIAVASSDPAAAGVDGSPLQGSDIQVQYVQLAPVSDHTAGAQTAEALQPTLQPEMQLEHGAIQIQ

“GQVWEATATVNAIRGSVTPAVSQFNARTAD (The sequence is developed from MPT63 of M. tuberculosis) [AT-01, 30 amino acid peptide synthesized from MPT-63 of M. tuberculosis]” was tested, and the “SMAR1 stabilization / induction” value [1] was “very less or no induction of SMAR1” and the “interaction with SMAR1 (ITC)” value [2] was “failed to interact with SMAR1”.

With ATATVNAIRGSVTPAVSQFN [AT-01C] the survival of mice [3] was “All the mice survived” and the survival of mice [4] was “All the mice survived”.

“NAIRGSVTPAVSQFN (The sequence is developed from MPT63 of M. tuberculosis) [AT-01D]” was tested, and the “SMAR1 stabilization / induction” value [1] was “heightened effectiveness; also recorded: superior induction of SMAR1; also recorded: stabilized SMAR1 the most; also recorded: significantly induce expression of SMAR1”, the SMAR1 stabilization [5] was “heightened effectiveness” and the “induction of SMAR1” value [6] was “induction of SMAR1 was observed”. For the same molecule, the “interaction with SMAR1 (ITC)” value [2] was “positive results”, the cell migration [7] was “mitigation of anticipated cell migration; also recorded: attenuate migration” and the “cell death (Annexin V)” value [8] was “no signs of cell death”. The “colony formation / rate of cell proliferation” value ([9]; HCT116, 10 μg, 12 days, vs DMSO control) was “delayed or decreased”, the “apoptotic cells in colony formation culture” value ([9]; HCT116, till the 12th day) was “No apoptotic cells or group of cells observed” and the “transcriptional regulation of SMAR1 (PCR)” value [10] was “failed to control the transcriptional regulation of SMAR1”.

B1: AT-01 (peptide)
peptide: GQVWEATATVNAIRGSVTPAVSQFNARTAD
notes: also called parent 30 amino acid peptide
B1: no binding [11].
